For series [1], the system named is 4T1.2-neu (murine breast cancer cells). The experiment in a line: Anti-proliferative activity (Resazurin Blue, 72 hours). In kind it is cell-based. The note with it: mean ± S.E.M., cisplatin basis. On the technique in general: Alamar Blue is a resazurin reagent that responds to reducing activity.
Description: (§2) MDA-1986 (human head and neck squamous cell carcinoma), 4T1.2-neu (murine breast cancer cells), and A2058 (human melanoma) cells were maintained in Dulbecco's Modified Eagle Medium (DMEM, Corning, Manassas, Va.) with 4.5 g/L glucose, 4.5 g/L L-glutamine, and 10% fetal bovine serum in a humidified incubator at 37° C. and 5% CO2. Cells were seeded into 96-well plates (3,000 cells/well in 90 μL media) and allowed to attach overnight. […] Resazurin Blue (Acros Organics, Geel, Belgium) in PBS was added to each well (5-μM final concentration; 10-μL addition) and incubated at 37° C. for 4 hours. Fluorescence (λex 550 nm, λem 605 nm) was quantified with a SpectraMax Gemini XS plate-reader (Molecular Devices, Sunnyvale, Calif.). The relative growth of cells incubated with each compound concentration was normalized to vehicle-treated controls (100% proliferation). Data from at least three separate experiments performed in duplicate was analyzed using non-linear regression (GraphPad Prism 5.0) to generate IC50 values.
In a further series the test system is white blood cell DNA. The experiment in a line: Pt-DNA adduct quantitation in white blood cell DNA. The note with it: for Pt-DNA adduct Tmax / Pt-DNA adduct AUC: cisplatin i.v. 10 mg/kg, HA-Lys-Pt s.c. 10 mg/kg cisplatin basis; for Pt-DNA adduct AUC: 10 mg/kg. In kind it is in vivo, rat. The method, then:
(§1) Whole blood was centrifuged (1500×g, 5 min., 4° C., no brake). Top layer (plasma) and middle layer (white blood cells) were transferred to new tubes. Plasma was frozen (−20° C.) until analysis. […] The white blood cell pellet was washed twice with cold PBS and re-suspended in 9 mL of white blood cell buffer (10-mM Tris, pH 7.4, 2.3% NaCl, 2-mM EDTA), and 900 μL of 1.1-M NH4HCO3, 900 μL of 10% SDS, and 75 μL of 2% Proteinase K were added and incubated at 42° C. overnight. Then, 3.3 mL of 5-M NaCl was added, samples shaken vigorously, and centrifuged twice (3200×g, 5 min, 4° C.), each time discarding the pellet. DNA was pelleted with 20 mL of ice-cold 100% ethanol and centrifuged (3200×g, 5 min, 4° C.); the DNA pellet was washed twice with 75% ethanol, re-suspended in water, and quantitated. DNA was digested in 1% HNO3 (800 μL total volume) overnight at 70° C. DNA samples were diluted 1:10 in 1% HNO3 and plasma samples were diluted 1:10,000 in 1% HNO3. Diluted samples were analyzed for Pt content using ICP-MS with a calibration curve from 1-1000 ppt.

Series [2] deals with MDA-1986 head and neck tumors. The experiment in a line: Anticancer efficacy, orthotopic xenograft model of human HNSCC. In kind it is in vivo, mouse. Also on record: key to tumor response, Modified RECIST: PR=Partial Response (>30% reduction); PD=Progressive Disease (>30% tumor growth); SD=Stable Disease (neither PR nor PD criteria met). The method, then:
The MDA-1986 cells were prepared in PBS at a concentration of 2×10^7 cells/mL. Female NU/NU mice were anesthetized under 2% isoflurane in O2, and 50 μL of cell solution was injected into the oral sub-mucosa of the mice using a 27-ga needle. All procedures in the animal study were approved by the Institutional Animal Care and Use Committee of the University of Kansas. Tumor growth was monitored twice weekly by measurement with a digital caliper, and the tumor volume was calculated as 0.52×(width)^2×(length). […] The drugs were given weekly for 3 consecutive weeks.
For orientation: A xenograft is tissue or cells of one species grown in another, often human tumour cells in immunodeficient mice.

The test system of series [3] is MDA-1986 (human head and neck squamous cell carcinoma) cells. The experiment in a line: Anti-proliferative activity (Resazurin Blue, 72 hours). In kind it is cell-based.
Description: as §2
The test system of series [4] is A2058 (human melanoma) cells. The description is as above. In kind it is cell-based. The note with it: mean ± S.E.M., cisplatin basis.
Description: as §2
Series [5] has as its system spontaneous canine cancers. The settings on record: dogs; cited from earlier work.
A short description of series [6]: Viscosity reduction by excipients (rheometer). In kind it is physicochemical. The note with it: 37° C. The method, then:
The viscosity of 29 kDa HA (60 mg/mL), 33HA-Lys (33 kDa HA with linker, 8 mg/mL on HA basis), and 33HA-Lys-Pt (41.7 mg/mL on HA basis) with increasing concentration of mannitol (0, 0.1, 0.5 and 1 M) were measured using a rheometer at 37° C.
The solutions were incubated in the dark for 20 hours using a CLAY ADAMS® Brand Nutator. After 20 hours, the pH of the solutions were adjusted to pH 6.0 using 1N NaOH. A Brookfield DVIII Ultra Programmable Rheometer was used to measure the viscosity of three 500-μL samples of each solution. Measurements were taken for each at three different RPMs, where the torque ranged from 10-100%. Values for viscosity were not recorded until at least 30 seconds after the motor was started, after the torque readings were stabilized.
The solutions were incubated in the dark for 20 hours using a CLAY ADAMS® Brand Nutator. After 20 hours, the pH of the solutions were adjusted to pH 5.0 or 6.0 using 1N NaOH. A Brookfield DVIII Ultra Programmable Rheometer was used to measure the viscosity of three 500-μL samples of each solution. Measurements were taken for each at three different RPMs, where the torque ranged from 10-100%. Values for viscosity were not recorded until at least 30 seconds after the motor was started, after the torque readings were stabilized.

A short description of series [7]: Viscosity reduction by excipients (rheometer). In kind it is physicochemical. The note with it: sucrose 0.1, 0.5 and 1 M, 37° C.
Series [8] in a line: Toxicity of HA-GluH-Pt in mice. In kind it is in vivo, mouse. The settings on record: single s.c. 20, 40, 67 and 100 mg/kg, 2 months. As to the method:
The toxicity of HA-GluH-Pt was evaluated in blab/C mice. Four blab/C mice were injected subcutaneously with 20, 40, 67 and 100 mg/kg HA-GluH-Pt. The body weights of the animals were checked weekly for 2 months.

The test system of series [9] is head and neck squamous cell carcinoma cells, MDA-1986. The experiment in a line: Cytotoxicity of HA-GluH-Pt (Resazurin blue). The settings on record: 72 hours. In kind it is cell-based, human. The method, then: Cell growth inhibition was determined in 96-well plates using head and neck squamous cell carcinoma cells, MDA-1986. […] Plates were seeded with 3,000 cells/well in 90 uL of media (6 replicates/sample). Ten microliters of HA-GluH-Pt conjugate solutions were applied after 24 hours. Resazurin blue in 10 uL of PBS was applied to each well (final concentration 5 uM) after another 72 hours.

Series [10] concerns MDA-1986 cells that overexpress CD44. The experiment in a line: CD44 specificity and cellular uptake of HA-GluH-Pt. In kind it is cell-based, human. The settings on record: 30-μg/mL, 6 h. As to the method:
CD44 specificity and cellular internalization mechanism of HA-GluH-Pt was investigated using MDA-1986 cells that overexpress CD44. Chlorpromazine was used as an endocytosis inhibitor. Cells were pretreated with 25-μM chlorpromazine or 10-μg/mL anti-CD44 1 h before the addition of 30-μg/mL HA-GluH-Pt (on platinum basis) and subsequent incubation for 6 h. Cells were trypsinized, lysed by sonication and diluted 20 fold prior to ICP-MS analysis.

A short description of series [11]: HPLC of small molecular platinum species after storage. The settings on record: solution stored at 4° C. for 4 days. In kind it is physicochemical. As to the method: Small molecular platinum species including cisplatin, Pt-monoaqua, and Pt-diaqua were quantified by HPLC. The mobile phase was sodium phosphate solution (10-mM, pH 3.0) at a flow rate of 0.25 mL/min on an Alltech® 250 mm×4.6 mm M/M RP8/cation column thermostated at 25° C. […] The filtrate was immediately injected into the HPLC.

Series [12] can be described thus: Toxicity of HA-Lys-Pt in healthy Balb/c mice. In kind it is in vivo, mouse. As to the method:
The toxicity of HA-Lys-Pt was evaluated in healthy Balb/c mice. […] Another group of Balb/c mice was injected subcutaneously with 8.86 (N=2), 13.3 (N=2), 17.7 (N=2), 20 (N=2), 30 (N=2), and 40 mg/kg (N=1) of the 33HA-Lys-Pt. Their body weights and symptoms of toxicities were monitored twice per week for up to 2 months.

A short description of series [13]: Transmission electron microscopy, particle diameter. In kind it is physicochemical. The note with it: TEM. The source says:
FIGS. 4A and 4B show the transmission electron microscopy images of HA-Lys-Pt (75 kD HA) before and after salt treatment for 2 weeks. The average diameters of HA-Lys-Pt particles ranged from 25 to 50 nm. […] Intense darkness results from the high electron density of Pt rich area. […] Reduced clustering of the salt treated nanoparticles may be due to reduced hydrophobicity due to release of Pt and availability of charged chelator groups.

A short description of the next series: Plasma Pt quantitation. The note with it: cisplatin i.v. 10 mg/kg; HA-Lys-Pt s.c. 10 mg/kg cisplatin basis. The method, then: as §1
The conditions of series [14]: human, in vivo; cited from earlier work.

Several values for one entry are separate records, joined by “and”; a condition that tells them apart may be missing. Equal values may be shown once.

In general, IC50 refers to the concentration needed to halve the response being measured. Take `N.N.[Cl][Pt][Cl]` [Cisplatin, cisplatin, reference compound]: the IC50 in series [1] was 9.4 ± 2.5 µM; in series [1] (listed as cisplatin) it was roughly 8 µM; in series [3] (mean ± S.E.M., cisplatin basis), 8.2 ± 0.6 µM; in series [3] (mean ± S.E.M., cisplatin basis, listed as cisplatin), roughly 8 µM; in series [4], 6.8 ± 2.7 µM; in series [4] (listed as cisplatin), roughly 8 µM. Also, the “Pt-DNA adduct Tmax” value in the series on white blood cell DNA was 1 h. Further, in the series on white blood cell DNA, the “Pt-DNA adduct AUC” value was 1466 pg Pt×h/μg DNA and 1255 pg Pt×h/μg DNA. Also, the “levels of adduct formation over the time course” value in the series with white blood cell DNA (i.v. 10 mg/kg, 15 minutes to 96 hours) is listed as 11-16 pg Pt/μg DNA. The “tumor response, Modified RECIST” value is “PR (PR=Partial Response (>30% reduction))” in series [2] (animal #1); “PD (PD=Progressive Disease (>30% tumor growth))” in series [2] (animal #2); “SD” in series [2] (animal #3); “PR (PR=Partial Response (>30% reduction))” in [2] (animal #4); “PD (PD=Progressive Disease (>30% tumor growth))” in [2] (animal #5); “PR (PR=Partial Response (>30% reduction))” in series [2] (animal #6). Also, the “tumor response, Modified RECIST” value in series [2] (animal #7) and in series [2] (animal #8) was “PD (PD=Progressive Disease (>30% tumor growth))” each time. Moreover, the “rate of partial response (PR)” value in [2] (three weekly injections) is on record as 37.5%. Moreover, the “rate of progressive disease (PD)” value in series [2] (three weekly injections) was determined as 50%. Besides, in [5], the “cure in heterogeneous oral squamous cell carcinomas” value was 7%.
As for “HA-cis-[Pt(NH3)2(N^α-Acetyl-L-Lysine)] [33HA-Lys-Pt]”, the effect on viscosity result is “reduced the viscosity” in series [6] (mannitol 0.1, 0.5 and 1 M); “reduced the viscosity” in [6] (trehalose 0.1, 0.5 and 1 M); “reduced the viscosity” in series [7]. Besides, the “tumor response, Modified RECIST” value in series [2] (animal #1) is listed as “PR (PR=Partial Response (>30% reduction))”; in series [2] (animal #2), “PR (PR=Partial Response (>30% reduction))”; in series [2] (animal #3) it was “SD”; in series [2] (animal #4), “PR (PR=Partial Response (>30% reduction))”; in [2] (animal #5), “PR (PR=Partial Response (>30% reduction))”; in series [2] (animal #6) it was “SD”. Moreover, the “tumor response, Modified RECIST” value in [2] (animal #7) and in series [2] (animal #8) was “PR (PR=Partial Response (>30% reduction))” each time. For the same compound, in [2] (three weekly injections), the “rate of partial response (PR)” value came out at 75%. Also, the IC50 in [3] (mean ± S.E.M., cisplatin basis, listed as HA-Lys-Pt 33 kDa) was 20.7 ± 2.9 µM; in series [3] (text b180, listed as HA-Lys-Pt 33 kDa) it was roughly 40 µM.
Turning to “HA-cis-[Pt(NH3)2(Nα-AcetylGluH)] [HA-GluH-Pt]”, the weight loss entry in [8] is “Less than 5%”. Besides, in series [9], the IC50 came to 623 µM. The “cellular uptake in anti-CD44 antibody and chlorpromazine treated cells” value in [10] is on record as “did not differ significantly from the non-treated control”.
Take “HA-cis-[Pt(NH3)2(N^α-Acetyl-L-Lysine)] [HA-Lys-Pt]”: the “Pt-DNA adduct Tmax” value with white blood cell DNA stood at 48 h. Further, in the series on white blood cell DNA, the “Pt-DNA adduct AUC” value is on record as 5247 pg Pt×h/μg DNA. Also, the “Pt-monoaqua and Pt-diaqua detection” value in [11] is listed as “Neither Pt-monoaqua nor Pt-diaqua was detected”. Further, the weight loss result is on record as “less than 5%” in [2] (single dose of 20 mg/kg) and “more than 20%” in series [2] (three weekly doses of 20 mg/kg, after the last injection). Moreover, the body weight recovery result in series [12] (20 or 30 mg/kg (on cisplatin basis), weight loss began one-week post treatment) was “returned to pre-dose weight within another two weeks”; in series [12] (highest dose (40 mg/kg), compared with 20 or 30 mg/kg), “one additional week”. Further, in series [12] (single s.c. injection, any dose level), the “acute toxic reactions including lethargy, paralysis, and respiratory depression” value is recorded as “not observed”. The diameters of nanoparticles in series [13] (after salt treatment for 2 weeks) and in [13] (freshly made) was 25-50 nm in each case. Moreover, the “plasma Pt Cmax” value in the series “Plasma Pt quantitation” worked out at 4.1±2.4 μg Pt/mL plasma. Besides, the “plasma Pt Tmax” value in the series “Plasma Pt quantitation” is 24 h.
For `N.N.O=C([O-])C1(C(=O)[O-])CCC1.[Pt+2]` [carboplatin], the “patients in whom thrombocytopenia is dose limiting” value in series [14] is given as 25%.
In turn, “HA6.4-cis-[Pt(NH3)2(Nα-Acetyl-L-lysine)] [HA6.4-lys-Pt]” had a cell growth inhibition in series [3] (highest dose tested (300 μM)) of less than 50%. The compound also displayed an IC50 in series [3] (mean ± S.E.M., cisplatin basis) greater than 500 µM.

These data come from patent US20190015518A1, “DRUG DELIVERY COMPOSITIONS AND METHODS” (priority 2016, published 2019).
